“Also recorded” adds a separate entry of the source. Where two headings read alike, the source gives them in different places.
Columns and labels:
hGAT3 = biological target: T1, hGAT3 (Homo sapiens, UniProt P48066); assay: [3H]GABA uptake at hGAT3 stably expressed in CHO cells; format: cell-based; settings: N=3
T1 construct: expressed in transfected cells
T1 sequence (P48066 1-632): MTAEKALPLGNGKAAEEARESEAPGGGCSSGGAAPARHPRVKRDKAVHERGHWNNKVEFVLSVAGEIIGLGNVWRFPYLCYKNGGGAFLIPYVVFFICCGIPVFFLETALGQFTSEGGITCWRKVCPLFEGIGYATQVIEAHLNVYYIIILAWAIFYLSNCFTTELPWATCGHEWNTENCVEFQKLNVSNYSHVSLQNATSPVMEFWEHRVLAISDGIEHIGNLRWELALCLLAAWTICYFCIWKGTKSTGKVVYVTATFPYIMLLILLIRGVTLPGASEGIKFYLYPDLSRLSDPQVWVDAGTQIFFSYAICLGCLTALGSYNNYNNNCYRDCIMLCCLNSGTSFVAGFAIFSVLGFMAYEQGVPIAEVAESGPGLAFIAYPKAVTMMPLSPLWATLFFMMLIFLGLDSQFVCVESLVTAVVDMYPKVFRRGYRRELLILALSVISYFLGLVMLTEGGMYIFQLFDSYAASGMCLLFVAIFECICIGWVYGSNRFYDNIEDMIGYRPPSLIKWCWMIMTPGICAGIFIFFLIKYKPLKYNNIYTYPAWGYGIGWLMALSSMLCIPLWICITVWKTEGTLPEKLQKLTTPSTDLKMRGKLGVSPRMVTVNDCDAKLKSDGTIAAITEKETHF
Experimental: (§1) The HEK-293 and Flp-In CHO cell lines stably expressing mouse (m) and human (h) GATs, respectively, have been described previously and were cultured accordingly. The tsA201 cell line was used for transient expression while the MDCK II cell line express BGT1 endogenously. Both cell lines were cultured as described. tsA201 cells were transfected with DNA constructs (8 μg per 10 cm dish if not otherwise mentioned) using 40 μL PolyFect transfection reagent according to the manufacturer’s protocol (Qiagen, Venlo, Netherlands). The DNA constructs encoding hBGT1, hGAT1-3 [36], the mutated constructs hBGT1 Q299 and hGAT3 L314Q described previously, and hBGT Y453A were synthesized and sequence validated by Genscript (NJ, USA).
(§2) The [^3H]GABA competition uptake assay was performed as previously described. A minor change, however, was introduced for uptake in MDCK II cells, in which 100 nM [^3H]GABA was used for a 15 min incubation period at 37 °C instead of 30 nM [^3H]GABA and 3 min incubation. Studies related to the inhibition curves with GABA and BPDBA at hBGT1 were obtained both with and without the presence of 10 μM ATP during the [^3H]GABA uptake assay.
(§3) The [^3H]GABA uptake data was normalized to the percentage of total uptake in the individual experiments in the presence of the lowest compound concentration or no compound present. Data presented is the pooled data of at least three independent experiments with three technical replicates. Concentration–response curves (CRCs) were fitted with GraphPad Prism (version 8.2.1, Yosemite, GraphPad Software, San Diego, CA, USA) by non-linear regression to the sigmoidal concentration response model: Y=Bottom+(Top-Bottom)/1+10^LogIC50-X∗nH where Top is the Top plateau, Bottom is the Bottom plateau, X is the logarithm of the concentration of the compound, LogIC50 is the concentration giving a response halfway between Top and Bottom,and nH is the Hill slope.
(§4) The best fit for CRCs obtained with the [^3H]GABA uptake assay was identified by the extra-sum-of-squares F test (for convenience referred to as F test).

SERT = biological target: T2, SERT (Homo sapiens, UniProt P31645); assay: NIMH PDSP radioligand binding, SERT; settings: radioligand [3H]citalopram, n=4
T2 construct: purchased NIMH Psychoactive Drug Screening Program (PDSP)

CF-1 mice = assay: s.c.PTZ seizure threshold test; format: in vivo, mouse; settings: 150 mg/kg i.p.
Description: Male audiogenic-susceptible (AGS) Frings mice were obtained from an in-house breeding facility at the University of Utah (Salt Lake City, UT, USA). Male CF-1 mice for the maximal electroshock (MES) test and the subcutaneous pentylenetetrazol (s.c.PTZ) seizure threshold test were purchased from Charles River (Kingston, WA, USA). All mice were housed in a temperature, humidity, and light (on at 6:00 AM) controlled facility at the University of Utah with access to ad libitum food and water except during testing. All procedures were carried out at the University of Utah in concordance with the National Institutes of Health Guidelines for the Care and Use of Laboratory Animals and under approval from the University of Utah’s Institutional Animal Care and Use Committee. The mice were euthanized in accordance with Public Health Service policies on the humane care of laboratory animals. SBV2-114 was tested for its ability to prevent a minimal clonic seizure in the s.c.PTZ seizure test, which is a test of generalized myoclonic seizures. […] At the TPE, mice were challenged with a s.c. dose of PTZ (85 mg/kg) and observed for 30 min for the presence or absence of a minimal clonic seizure characterized by minimal forelimb clonus and/or vibrissae twitching. Mice not displaying this phenotypic behaviour were considered protected.

hGAT2 = biological target: T3, hGAT2 (Homo sapiens, UniProt Q9NSD5); assay: [3H]GABA uptake at hGAT2 stably expressed in CHO cells; format: cell-based
T3 construct: expressed in transfected cells
T3 sequence (Q9NSD5 1-602): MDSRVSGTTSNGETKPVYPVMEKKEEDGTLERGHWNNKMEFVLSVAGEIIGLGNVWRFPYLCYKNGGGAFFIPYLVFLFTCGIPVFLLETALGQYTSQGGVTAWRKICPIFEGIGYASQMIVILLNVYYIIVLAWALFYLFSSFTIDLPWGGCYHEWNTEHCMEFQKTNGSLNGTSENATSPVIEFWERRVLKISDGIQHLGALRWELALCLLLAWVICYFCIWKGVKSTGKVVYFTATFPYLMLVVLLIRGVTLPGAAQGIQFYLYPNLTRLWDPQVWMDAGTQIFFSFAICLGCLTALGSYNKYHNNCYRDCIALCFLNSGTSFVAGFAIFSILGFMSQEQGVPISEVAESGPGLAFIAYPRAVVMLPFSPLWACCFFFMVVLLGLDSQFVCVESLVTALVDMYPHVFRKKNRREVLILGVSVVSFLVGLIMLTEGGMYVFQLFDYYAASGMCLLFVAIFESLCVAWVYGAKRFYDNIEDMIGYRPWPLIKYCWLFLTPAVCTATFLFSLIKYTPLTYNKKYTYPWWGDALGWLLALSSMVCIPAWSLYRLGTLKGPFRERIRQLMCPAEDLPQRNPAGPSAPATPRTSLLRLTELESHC
Experimental: as §1, §2, §3, §4

mGAT2 = biological target: T4, mGAT2 (Mus musculus, UniProt P31649); assay: [3H]GABA uptake at mGAT2 stably expressed in HEK-293 cells; format: cell-based
T4 construct: expressed in transfected cells
Experimental: as §1, §2
The [^3H]GABA uptake data was normalized to the percentage of total uptake in the individual experiments in the presence of the lowest compound concentration or no compound present. […]

T4 sequence (P31649 whole entry): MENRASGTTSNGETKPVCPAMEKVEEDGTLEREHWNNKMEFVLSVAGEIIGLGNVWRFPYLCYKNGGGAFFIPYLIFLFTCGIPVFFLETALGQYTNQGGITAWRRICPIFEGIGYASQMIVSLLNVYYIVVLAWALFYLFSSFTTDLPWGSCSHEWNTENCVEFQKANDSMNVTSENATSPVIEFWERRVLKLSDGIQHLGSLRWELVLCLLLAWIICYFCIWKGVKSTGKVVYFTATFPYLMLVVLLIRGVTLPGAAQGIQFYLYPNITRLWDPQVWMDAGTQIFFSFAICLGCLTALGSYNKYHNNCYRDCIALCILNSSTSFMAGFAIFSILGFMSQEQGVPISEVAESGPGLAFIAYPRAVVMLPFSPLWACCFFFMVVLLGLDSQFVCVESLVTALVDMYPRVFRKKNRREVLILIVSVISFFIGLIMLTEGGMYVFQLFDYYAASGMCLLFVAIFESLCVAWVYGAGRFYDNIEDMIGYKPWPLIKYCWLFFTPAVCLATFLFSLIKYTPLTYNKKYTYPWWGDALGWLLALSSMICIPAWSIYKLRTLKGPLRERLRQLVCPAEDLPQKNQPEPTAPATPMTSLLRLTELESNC
T2 sequence (P31645 whole entry): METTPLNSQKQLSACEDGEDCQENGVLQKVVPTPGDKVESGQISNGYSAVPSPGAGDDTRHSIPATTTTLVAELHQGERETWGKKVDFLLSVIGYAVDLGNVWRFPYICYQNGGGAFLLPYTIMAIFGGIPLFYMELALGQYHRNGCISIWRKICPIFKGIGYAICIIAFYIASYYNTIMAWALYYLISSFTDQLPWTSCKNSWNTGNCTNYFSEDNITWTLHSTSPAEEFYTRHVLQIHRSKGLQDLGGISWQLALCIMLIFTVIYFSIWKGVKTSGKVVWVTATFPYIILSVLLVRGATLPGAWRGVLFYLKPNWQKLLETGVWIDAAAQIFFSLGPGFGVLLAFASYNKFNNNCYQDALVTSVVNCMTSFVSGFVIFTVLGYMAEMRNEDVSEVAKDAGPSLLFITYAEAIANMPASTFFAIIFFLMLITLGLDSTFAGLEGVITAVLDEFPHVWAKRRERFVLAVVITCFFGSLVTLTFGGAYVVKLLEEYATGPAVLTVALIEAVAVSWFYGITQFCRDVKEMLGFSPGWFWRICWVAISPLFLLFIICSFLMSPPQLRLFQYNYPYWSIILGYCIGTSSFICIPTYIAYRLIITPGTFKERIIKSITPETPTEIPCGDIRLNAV

## Cc1ccsc1C(=CCCN(C)[C@H]1CCCC[C@H]1C(=O)O)c1sccc1C [SBV2-114, (1R,2S)-2-((4,4-bis(3-methylthiophen-2-yl)but-3-en-yl)(methyl)amino)cyclohexanecarboxylic acid]
hGAT3; biphasic fit, CHO
  Frac: 0.09
hGAT3; biphasic fit, CHO, read-out: IC50, high affinity component
  IC50: 2.09 µM
hGAT3; preferred model
  Fit: Biphasic
hGAT3; read-out: IC50, low affinity component, biphasic fit, CHO
  IC50: 603 µM
SERT
  inhibition at 10 µM: 18.8%
CF-1 mice
  effect on s.c.PTZ-induced seizures: did not block s.c.PTZ-induced seizures
CF-1 mice; 30 min, PTZ 85 mg/kg s.c.
  #Protected/#Tested: 0/8
hGAT2; ambiguous fit, N=3, CHO, read-out: IC50
  IC50: 525 µM
hGAT2; biphasic fit, N=1, CHO
  Frac: 0.06
hGAT2; biphasic fit, N=1, CHO, read-out: IC50, high affinity component
  IC50: 3.31 µM
hGAT2; preferred model per experiment
  Fit: Biphasic; also recorded: Ambiguous
hGAT2; read-out: IC50, low affinity component, biphasic fit, N=1, CHO
  IC50: 550 µM
mGAT2
  IC50: > 1000 µM
mGAT2; preferred model, N=3
  Fit: Ambiguous

Reference: PMC7297817, “Pharmacological Characterization of a Betaine/GABA Transporter 1 (BGT1) Inhibitor Displaying an Unusual Biphasic Inhibition Profile and Anti-seizure Effects” (Neurochemical Research, 2020)
